Measured values: publication PMC10670708, “A New Synthetic Curcuminoid Displays Antitumor Activities in Metastasized Melanoma” (Cells, 2023)
“And” between values parts separate entries of the source, which are not always exact repeats. Identical values can stand only once. “Also recorded” adds a separate entry of the source.

Experiments:
[1] = test system: B16F10 murine melanoma cells; experiment: Cytotoxicity assay (resazurin), B16F10; type: cell-based; conditions: for IC50: Mus musculus, B16-F10, 48 h, resazurin
Protocol: (§1) 3T3 murine fibroblasts (ATCC # CRL-1658), B16F10 murine melanoma cells (ATCC # CRL-6475) and RAW 264.7 murine macrophages (ATCC # TIB-71) were cultured in Dulbecco’s modified eagle’s high-glucose medium (Sigma Aldrich, Darmstadt, Germany) supplemented with 10% fetal bovine serum (FBS), 1% streptomycin–penicillin (Gibco, Darmstadt, Germany) and 1% L-glutamine (Gibco, Germany). AML12 murine hepatocytes (ATCC # CRL-2254) were cultivated in Dulbecco’s modified eagle’s F-12 Ham media supplemented as described above plus 10 µg/mL insulin, 5.5 µg/mL transferrin, 5 ng/mL selenium (all from Thermo Fisher Scientific, Braunschweig, Germany) and 40 ng/mL dexamethasone (Sigma Aldrich). All cells were maintained in a humidified incubator at 37 °C under 5% CO2. Cells were passaged when they reached semi-confluency. For detachment, cells were thoroughly rinsed with Dulbecco’s phosphate-buffered saline (PBS) without calcium and magnesium (Sigma Aldrich) and enzymatically treated using TrypLE™ Express (1×) (Gibco, Germany). FBS-containing medium was added to stop enzymatic activity.
(§2) A total of 1000 cells were seeded per well in 100 µL medium (for details, see above) using 96-well plates (Greiner Bio-On, Frickenhausen, Germany). After 24 h, curcumin, garcinol (both from Sigma Aldrich), MePip-SF5 and isogarcinol (synthesized as described previously) were added to the wells at concentrations ranging from 0.5 to 64 µM (6 wells per concentration step) and incubated at […] for 48 h. For the preparation of the compounds, drugs were dissolved in DMSO at a concentration of 40 mM for stock solutions and freshly diluted with PBS to a working stock of 4 mM on the day of the experiment.
(§3) After the incubation, resazurin (Sigma Aldrich) was dissolved in fully supplemented media and added to a final concentration of 25 µg/mL per well. After incubation for 3 h, the absorbance of resorufin (7-hydroxy-3H-phenoxazin-3-one), the enzymatic product of resazurin, in the wells was measured on an Infinite M200Pro spectrofluorometer (TECAN, Männedorf, Switzerland) at an excitation of 570 nm. Based on the determined dose–response curves, IC50 concentrations were calculated by Prism 10 (GraphPad Software Version 10.1.0, La Jolla, CA, USA) using nonlinear regression analysis after conversion of concentrations to logarithmic scale.

3T3 murine fibroblasts = experiment: Cytotoxicity assay (resazurin), 3T3; type: cell-based; conditions: 3T3 fibroblasts; for IC50: Mus musculus, Fibroblast, 48 h, resazurin
Protocol: as §1, §2, §3

AML12 murine hepatocytes = experiment: Cytotoxicity assay (resazurin), AML12; type: cell-based; conditions: Mus musculus, 48 h
Protocol: as §1, §2, §3

[2] = test system: RAW 264.7 murine macrophages; experiment: Cytotoxicity assay (resazurin), RAW 264.7; type: cell-based; conditions: Mus musculus, RAW264.7, 48 h
Protocol: as §1, §2, §3

healthy C57BL/6 mice = experiment: In vivo toxicity and dose finding; conditions: for maximum tolerated single dose without signs of acute toxicity: intraperitoneal, twice weekly, escalating doses, n = 2, weight loss and abnormal behavior
Protocol: Groups of 2 mice (C57BL/6) were challenged with increasing doses of MePip-SF5 or isogarcinol. Stock solutions of drugs (40 mM in DMSO, corresponding to 24 mg/mL for isogarcinol and 21 mg/mL for MePip-SF5) were freshly dissolved in PBS, yielding a total injection volume of 100 µL. Prepared drug solutions were intraperitoneally injected twice weekly (Monday and Friday) over 4 weeks. Drug doses were doubled each week, starting with 15 mg/kg body weight. Physical appearance and body weight were closely monitored. Toxic dose was defined as body weight loss of ≥10% in one week, abnormal behavior or when mice lost ≥5% of their body weight in two consecutive weeks.

[3] = test system: B16F10 pulmonary melanoma metastases; experiment: In vivo antitumor therapy, pulmonary metastasis of B16F10 melanoma; parameters: species or system mice (C57BL/6); conditions: for pulmonary tumor load / antitumor effect: MePip-SF5 60 mg/kg, isogarcinol 15 mg/kg i.p. days 8, 11, 14, day 16, vs vehicle
Protocol: Eight-weeks-old female C57BL/6 mice (body weight ~20 g) were purchased from Charles River (Sulzfeld, Germany) and kept under 12 h light–dark cycles at 25 °C and 40–60% humidity with humane care. Mice had access to regular chow and water ad libitum. Pulmonary metastases were generated by tail vein injection. A total of 500,000 B16F10 cells were resuspended in sterile 100 µL PBS (cell viability > 90%) and injected into the tail vein of the mice while animals were immobilized in a mouse restrainer (G&P Kunststofftechnik, Kassel, Germany). At 8, 11 and 14 days after melanoma cell injection, groups of mice (n = 10) received an intraperitoneal injection of isogarcinol (15 mg/kg) or MePip-SF5 (60 mg/kg) of 200 µL, while non-treated control mice received equal volumes of PBS. At day 16, mice were sacrificed, and organs (lungs, liver, kidneys and spleen) and blood were sampled for further analysis. Tumor nodules of the left and right lobes of the lungs were macroscopically counted. Pictures of the lungs were taken with a Stemi 2000-C binocular (Carl Zeiss, Jena, Germany), and a mm scale was pictured to create a mm grid in ImageJ software (latest version 1.54f (National Institute of Health, Bethesda, MD, USA). In addition to surface lesion counts, tumors were categorized by their size into categories of <1 mm and <2 mm. Afterwards, both lobes were formalin fixed, paraffin embedded and sectioned (5 µm) to assess intrapulmonary tumor burden. Sections were stained with ready-to-use hematoxylin and eosin staining solution (Carl Roth, Karlsruhe, Germany) for 5 min at room temperature and washed in distilled water and 0.5% acetic acid. Per mouse, lungs were cut into 4–5 parts and then microtome thin-sectioned ([…]). Then, 4 lung sections were randomly selected and analyzed. Sections were tile-scanned with a Leica microscope (DMi8). Pictures were binarized and the percentage of healthy vs. tumor lung tissue measured by ImageJ software using an adjusted threshold setting. Data are expressed as means ± SD per mouse (n = 10 treated group; and n = 11 per control group).

C57BL/6 mice = experiment: Safety laboratory and biometric parameters in treated metastasis-bearing mice; type: in vivo; conditions: for tolerability at the applied doses: MePip-SF5 60 mg/kg, isogarcinol 15 mg/kg i.p. ×3; for safety laboratory parameters (LDH, creatinine, urea, ALT, AST, GLDH, γ-GT, Bilirubin, ALP): serum, day 16
Protocol: (§4) At 8, 11 and 14 days after melanoma cell injection, groups of mice (n = 10) received an intraperitoneal injection of isogarcinol (15 mg/kg) or MePip-SF5 (60 mg/kg) of 200 µL, while non-treated control mice received equal volumes of PBS. At day 16, mice were sacrificed, and organs (lungs, liver, kidneys and spleen) and blood were sampled for further analysis.

[4] = test system: metastatic lung tissue transcripts; experiment: RT-qPCR of transcripts in lung tissue of treated mice; type: in vivo, mice (C57BL/6); conditions: MePip-SF5 60 mg/kg, vs controls
Protocol: (§5) Total RNA was extracted via phenol extraction from cells using RNA-Solv® reagent (VWR International GmbH, Hessen, Germany) as described in the manual of the manufacturer. RNA was purified with the Monarch® Total RNA Miniprep Kit (New England BioLabs GmbH, Frankfurt am Main, Germany) following the manual of the manufacturer. For RNA extraction from lung tissue, the accessory lobe of the right lung was mechanically homogenized in 1 mL RNA-Solv® reagent using the Tissue Lyser II (Qiagen, Venlo, The Netherlands). A 100 µL amount of the suspension was mixed with 900 µL RNA-Solv® reagent, and total RNA extraction was performed using the Monarch® Total RNA Miniprep Kit as described in the manual of the manufacturer.
(§6) RNA content of the extracted solution was measured optically using the Infinite® 200 PRO spectrofluorometer (TECAN, Switzerland), and 25 ng RNA per reaction was used in the following analysis.
(§7) Transcript levels of β-Actin were used to normalize data and to control for RNA integrity. Samples were amplified with the Luna® Universal One-Step RT-qPCR Kit (New England BioLabs GmbH, Frankfurt am Main) and analyzed using a Step One Plus sequence amplification system from LifeTechnologies (Darmstadt, Germany). For normalization, results were expressed as the ratio of the copy numbers of the target gene divided by the number of copies of the housekeeping gene (β-Actin) within individual PCR runs.
as §4

[5] = test system: M2-polarized bone-marrow-derived macrophages; experiment: Phenotype modulation of M2-polarized BMDM (RT-qPCR); type: cell-based, mice (C57BL/6); conditions: M2-polarized primary macrophages; for Ccl3 expression: half of RAW IC50
Protocol: Bone marrow was extracted from 8-weeks-old C57BL/6 mice (Charles River, Erkrat, Germany) and matured into primary macrophages in the presence of macrophage colony-stimulating factor (M-CSF). Briefly, mice were sacrificed by cervical dislocation, and the femurs and tibias were isolated under sterile conditions and rinsed with cold PBS supplemented with 2% heat-inactivated FBS and 1% penicillin/streptomycin using a 21G needle and a 10 mL syringe (Braun, Kronberg, Germany). Cell suspensions were passed through a 70 µm cell strainer (Milteny, Bergisch Gladbach, Germany). The remaining red blood cells were lysed with red cell lysis buffer (eBioscience, San Diego, CA, USA) and the resulting bone marrow cells resuspended in fully supplemented Iscove’s modified Dulbecco’s medium (Gibco) plus 25 ng/mL M-CSF (from a 1 mg/mL M-CSF stock solution in PBS, M-CSF, ImmunoTools, Friesoythe, Germany). Five million cells were cultured on bacterial culture plates (Sigma-Aldrich, Germany) in a total volume of 10 mL. After 4 days, half of the medium was substituted by fresh medium to yield primary macrophages after an additional 4 days.
For M2-type polarization, BMDM medium was exchanged for fresh medium containing 20 ng/mL IL-4 and 20 ng/mL IL-13 (ImmunoTools, Germany), and cells were incubated for 24 h. […] IC50 concentrations were calculated as described above for the cytotoxicity assays.
as §5, §6, §7

[6] = test system: various solid tumor cell lines (including colon cancer and glioblastoma cells); conditions: exceeded the activities of previous curcuminoids; cited from earlier work
[7] = test system: gemcitabine-resistant pancreatic cancer patients; parameters: method as in PMID 20859741; conditions: cited from earlier work

## CN1C/C(=C\c2ccc(S(F)(F)(F)(F)F)cc2)C(=O)/C(=C/c2ccc(S(F)(F)(F)(F)F)cc2)C1 [MePip-SF5, (E)-1-methyl-3,5-bis(4-pentafluorothiobenzylidene)-4-piperidone]
[1]
  IC50: 2.8 µM
3T3 murine fibroblasts; ratio of IC50
  times more active than parent drug curcumin: 10 ×
3T3 murine fibroblasts
  IC50: 0.7 µM
AML12 murine hepatocytes
  IC50: 2.3 µM
[2]
  IC50: 1.3 µM
Healthy C57BL/6 mice
  maximum tolerated single dose without signs of acute toxicity: 60 mg/kg
Healthy C57BL/6 mice; ratio of tolerated doses
  could be dosed more highly than isogarcinol: 8 ×
[3]; 60 mg/kg i.p. days 8, 11, 14, vs PBS-treated controls
  proportion of healthy lung tissue (morphometric, thin sections): significantly higher
[3]
  pulmonary tumor load / antitumor effect: significantly (p < 0.05) lower; also recorded: robust antitumor effect
[3]; i.p. days 8, 11, 14, sacrifice day 16, vs controls and isogarcinol-treated mice
  numbers of macroscopic tumor nodules of size ≤ 1 mm in the lungs: significantly (p < 0.05) lower
C57BL/6 mice
  tolerability at the applied doses: well tolerated
  safety laboratory parameters (LDH, creatinine, urea, ALT, AST, GLDH, γ-GT, Bilirubin, ALP): remained normal
[4]
  Bax expression in lungs: remained unchanged
  Bcl2 expression in lungs: remained unchanged
  Hif1a expression in lungs: did not affect
  Il6 expression in lungs: did not affect
  Ki67 expression in lungs: trend of reduced expression
[4]; 60 mg/kg
  Bub1 expression in lungs: significantly (p < 0.05) reduced; also recorded: significantly downregulated
  Ccl3 expression in lungs: significantly (p < 0.05) reduced
  Tnfa expression in lungs: significantly (p < 0.05) reduced
[5]
  Inos expression: no effect
  Ccl3 expression: upregulated
[5]; effective dose of 0.6 µM
  Ccl2 expression: increased
[6]
  antiproliferative activity: high antiproliferative activity

## COc1cc(/C=C/C(=O)CC(=O)/C=C/c2ccc(O)c(OC)c2)ccc1O [curcumin]
[1]
  IC50: 13.8 µM
3T3 murine fibroblasts
  IC50: 6.8 µM
AML12 murine hepatocytes
  IC50: 10.8 µM
[2]
  IC50: 5.5 µM
[7]; 95% confidence interval 4.4–41.4%
  1-year survival rate: 19%
[7]; 95% confidence interval 109–223 days
  median survival: 161 days

## C=C(C)[C@@H](CC=C(C)C)C[C@@]12C[C@@H](CC=C(C)C)C(C)(C)[C@@](CC=C(C)C)(C(=O)C(C(=O)c3ccc(O)c(O)c3)=C1O)C2=O [garcinol, reference compound]
[1]
  IC50: 3.1 µM
3T3 murine fibroblasts
  IC50: 8.7 µM
AML12 murine hepatocytes
  IC50: 10.1 µM
[2]
  IC50: 3.8 µM
[5]
  Ccl3 expression: not

## CC(C)=CC[C@H]1C[C@@]23C[C@@H](CC=C(C)C)C(C)(C)[C@@](CC=C(C)C)(C(=O)C(C(=O)c4ccc(O)c(O)c4)=C2OC1(C)C)C3=O [isogarcinol]
[1]
  stronger activity than original substance garcinol: 40% and ~ 40%
  IC50: 2.1 µM
3T3 murine fibroblasts
  IC50: 3.2 µM
AML12 murine hepatocytes
  IC50: 4.3 µM
[2]
  IC50: 2.3 µM
Healthy C57BL/6 mice
  maximum tolerated single dose without signs of acute toxicity: 15 mg/kg
[3]
  pulmonary tumor load / antitumor effect: ineffective; also recorded: failed to show activity
C57BL/6 mice
  tolerability at the applied doses: well tolerated
  safety laboratory parameters (LDH, creatinine, urea, ALT, AST, GLDH, γ-GT, Bilirubin, ALP): remained normal
[5]
  Ccl3 expression: increased
